Here are results for 2 compounds from US20040076601A1, “Pharmaceutical form comprising a cell regulating factor and/or a cell proliferation promoter” (priority 2000, published 2004).

Data set [1] deals with BP-A31 fibroblasts. The data set is described as follows: MTT proliferation assay of form containing SPC (Example 7). To be noted: BP-A31 fibroblasts over 24 h vs untreated control; 3.1% added to the well, final theoretical SPC concentration 15 μM. In kind it is cell-based, mouse. The procedure:
SPC was formulated in a support material containing 60% by weight of methylidene malonate oligomer and 40% by weight of methylidene malonate polymer prepared from 1-ethoxycarbonyl-1-ethoxycarbonylmethyleneoxycarbonylethene monomer (100 μg of SPC formulated per 40 mg of material, as described in Example 2). The pharmaceutical form according to the invention, containing SPC or its control solvent, was then brought into contact with BP-A31 fibroblasts according to the protocol described in Example 1. The effect of adding 3.1% to the well, generating a final theoretical SPC concentration of 15 μM, is shown here. The stimulation of cell proliferation was quantified by the MTT assay. The results, expressed as the percentage proliferation of the cells over 24 h compared with an untreated control culture, are reported in Table 6 below.
In general terms: Formazan colour is commonly taken as a measure of viable cells.

Data set [2] relates to BP-A31 cells. Briefly: Stability of the biological activity of FGF-2 after storage at 4° C., MTT assay (Example 4). The conditions noted are these: MTT assay 24 h, FIG. 1. In kind it is cell-based, mouse. The procedure: The materials used are on the one hand the three pharmaceutical forms of Example 3, in which the support material consists of different proportions by weight of methylidene malonate oligomers and polymers, and on the other hand free (non-formulated) FGF-2. After storage of the 3 pharmaceutical forms and the free FGF-2 for 7, 14 and 21 days at 4° C., the stimulating activity on cell proliferation is measured by the MTT assay described in Example 2 for 24 h compared with a control culture with no growth factor added.
The results are shown graphically in FIG. 1, in which the storage time at 4° C., expressed in days, is plotted on the abscissa and the percentage proliferation is plotted on the ordinate.

Regarding `CCCCCCCCCCCCC/C=C/[C@@H](O)[C@@H](N)COP(=O)([O-])OCC[N+](C)(C)C` [Free SPC, sphingosylphosphorylcholine], the “Proliferation (%)” value in data set [1] worked out at 158.8 ± 3.2%.
With “free (non-formulated) FGF-2: free (non-formulated) basic fibroblast growth factor, human recombinant FGF-2”, in data set [2], the “stability of biological activity on storage” value is recorded as “rapidly losing its biological activity (after 7 days)”.
